System: C57BL/6J inbred strain female mice
Experiment: Survival after 8 Gy whole body γ-irradiation, oral 200 mg/kg at varying time points before (Example 6)
Assay type: in vivo
Conditions: for No. of animals surviving at 20 days post-irradiation: 10 animals; for Death rate (%): 20 days
Method: β-lapachone is prepared at 10 mg/ml in 40% hydroxypropyl-beta-cyclodextrin (HPBCD).
C57BL/6J inbred strain female mice (4-5 weeks old) are used. Animals are maintained in a climate-controlled animal facility.
β-lapachone (200 mg/kg body weight) is orally administered to animals at either 0.5 hour, 1 hour, 2 hours, 4 hours or 6 hours before irradiation.
Whole body irradiation of animals with 8 Gy of γ-rays is carried out in air at room temperature in a gamma chamber (Gammacell 40 Exactor), at a dose-rate of 1.05 Gy/min. This radiation dose is within the range of equivalent human exposures predicted in many scenarios of radiologic or nuclear terrorist attack. […]
Group III: β-lapachone (200 mg/kg body weight) is orally administered to mice 6 hours before radiation.
Group IV: β-lapachone (200 mg/kg body weight) is orally administered to mice 4 hours before radiation.
Group V: β-lapachone (200 mg/kg body weight) is orally administered to mice 2 hours before radiation.
Group VI: β-lapachone (200 mg/kg body weight) is orally administered to mice 1 hour before radiation.
Group VII: β-lapachone (200 mg/kg body weight) is orally administered to mice 0.5 hour before radiation.
Animals are irradiated with 8 Gy at 1.05 Gy/min dose-rate. After irradiation mice are returned to their cage and observed on a regular basis. Exposure to γ-rays causes lethality in animals. Importantly, treatment with β-lapachone, especially at a level of 200 mg/kg orally at one hour prior to irradiation, diminishes the death rate.

[1] = 200 mg/kg p.o. 0.5 hr before Radiation 8 Gy
[2] = 200 mg/kg p.o. 1 hr before Radiation 8 Gy
[3] = 200 mg/kg p.o. 2 hr before Radiation 8 Gy
[4] = 200 mg/kg p.o. 4 hr before Radiation 8 Gy
[5] = 200 mg/kg p.o. 6 hr before Radiation 8 Gy

Structure (SMILES): CC1(C)CCC2=C(O1)c1ccccc1C(=O)C2=O [β-lapachone, 3,4-dihydro-2,2-dimethyl-2H-naphtho[1,2-b]pyran-5,6-dione]
- Median survival time [1]: 10 days
- No. of animals surviving at 20 days post-irradiation [1]: 0
- Death rate (%) [1]: 100%
- Survival of the treated mice at day 50 post irradiation (FIG. 7) (200 mg/kg p.o. 1 hour prior to 8 Gy): more than 30%
- Median survival time [2]: 18 days
- No. of animals surviving at 20 days post-irradiation [2]: 3
- Death rate (%) [2]: 70%
- Median survival time [3]: 10 days
- No. of animals surviving at 20 days post-irradiation [3]: 0
- Death rate (%) [3]: 100%
- Median survival time [4]: 14 days
- No. of animals surviving at 20 days post-irradiation [4]: 0
- Death rate (%) [4]: 100%
- Median survival time [5]: 18 days
- No. of animals surviving at 20 days post-irradiation [5]: 1
- Death rate (%) [5]: 90%

— patent US7649013B2, “Methods of protecting against radiation injury” (priority 2003, dated 2010)
